Reference: patent US9227982B2 (NOVARTIS AG, priority 2011, dated 2016)

Tests used:
[1] = test system: Herpes Simplex Virus (HSV); settings: cited from earlier work
[2] = test system: Non-small lung cancer ABC-1 cells; assay: Cellular proliferation assay (CellTiter-Glo) in ABC-1 cells; assay type: cell-based; settings: Homo sapiens, 72 h, 3 days of compound treatment
Description: Cellular Proliferation Assay to Determine Compound Inhibition of Cancer Cell Growth
Non-small lung cancer ABC-1 cells were plated at 5000 cells per well in 96-well plates and treated with 8 serial compound dilutions starting from 10 μM as the highest concentration. Viable cells were measured after 3 days of compound treatment using the CellTiter-Glo assay (Promega, G7570). Assay was performed following the manufacture protocol.

Axin2 protein = assay: Cellular ELISA assay of Axin2 protein stabilization in SW480 cells; assay type: cell-based; settings: Homo sapiens, 24 hrs treatment, read-out: Axin AC50
Description: Cellular ELISA Assay to Determine Compound Effect on Stabilizing the Axin2 Protein
Compound activity in stabilizing the Axin2 protein was measured by Sandwich Enzyme-Linked Immuosorbent (ELISA) assay in the colorectal cell line SW480. 30,000 SW480 cells were seeded per well in 96-well plate and incubated overnight prior to compound treatment. Cells were then treated with compounds in 6-point dilution starting at 10 μM for 24 hrs. Cells were then washed with 100 μL of cold Phosphate Buffer Saline (PBS), and lysed in 125 μl of cold 1× lysis buffer (Cell Signaling Technology, 9803) supplemented with Protease inhibitor (Roche, 11836170) and Phosphatase inhibitors (Sigma, P2850, P5726). For the ELISA assay, anti Axin-2 capture antibody (Strategic Diagnostics) antibody was diluted to a concentration of 1 μg/ml (1:1000) in Carbonate Coating buffer, pH 9.2 (Sigma, C3041-50CAP). 100μ of the diluted anti Axin-2 capture antibody per well was then used to coat the 96-well ELISA plate (Thermo Electron Corp., MicroLite 1 flat bottom plate #7571) overnight at 4° C. Plates were then washed three times with 300 of wash solution, PBST20 (PBS+0.05% Tween), and blocked with 300 μl/well 1% BSA/PBS (BSA, Millipore Probumin #82-045-1) for 1.5 hours at room temperature while shaking gently. After blocking, plates were then washed three times with 300 of wash solution. 100 μL of prepared SW480 cell lysate was then added to each well and incubated at room temperature for 2 hours while shaking gently. After washing, 100 μL of Biotinylated anti-Axin2 antibody (CST, 2151) was added to each well and incubated room temperature for 2 hours. 100 μL of Streptavidin-HRP (R&D systems, DY998) diluted 1:200 in 1% BSA/PBS was then added in each well and incubate for 30 mins at R/T in the dark.

[3] = target: human tankyrase 1 PARP catalytic domain, TNKS1P (Homo sapiens (Human), UniProt O95271); assay: TNKS1 autoparsylation enzymatic assay (LC/MS detection of nicotinamide); assay type: biochemical; settings: 20 nM enzyme, 250 μM β-NAD+, 60 min, read-out: TNKS1 AP IC50
Chain of human tankyrase 1 PARP catalytic domain, TNKS1P (O95271 1112-1317): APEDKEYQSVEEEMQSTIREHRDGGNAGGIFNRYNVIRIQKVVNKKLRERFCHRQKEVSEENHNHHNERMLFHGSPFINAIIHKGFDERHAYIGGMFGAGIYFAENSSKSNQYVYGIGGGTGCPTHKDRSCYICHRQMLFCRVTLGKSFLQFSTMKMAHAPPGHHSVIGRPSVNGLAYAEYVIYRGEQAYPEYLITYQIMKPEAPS
Excerpt: (§1) The human tankyrase 1 PARP catalytic domain, TNKS1P, was cloned into a pDONR221 vector using the Invitrogen Gateway Technology. This entry clone was then subcloned into the destination vector pDEST20 to obtain the N-terminal Glutathione S-transferase (GST)-tagged fusion protein. GST-TNKS1P was then expressed in Sf21 cells using the Invitrogen baculovirus expression system (Invitrogen-Bac-to-Bac® Baculovirus Expression System, Version D). The protein was purified by a GSTrap column (GE Healthcare). The N-terminal GST-tagged tankyrase 2 protein PARP domain, TNKS2P, was cloned, expressed, and purified in a similar manner. Human PARP1 (Cat. No. 4668-100-01) and activated DNA (Cat. No. 4671-096-06) were purchased from Trevigen, Inc. PARP2 (Cat. No. ALX-201-064-C020) was purchased from Alexis Biochemical.
The % Inhibition was calculated as: (Control−Sample)/(Control−Background)*100. “Control” is the average value of 8 wells without compound; and “Background” is the average of 8 wells mixed with 5× quenching solution measured prior to initiation of the reaction.

PARP2 = PARP2 (Mus musculus (Mouse), UniProt O88554); assay: PARP2 autoparsylation enzymatic assay (LC/MS detection of nicotinamide); assay type: biochemical; settings: 20 nM enzyme, 250 μM β-NAD+, 60 min
Chain of PARP2 (O88554 whole entry): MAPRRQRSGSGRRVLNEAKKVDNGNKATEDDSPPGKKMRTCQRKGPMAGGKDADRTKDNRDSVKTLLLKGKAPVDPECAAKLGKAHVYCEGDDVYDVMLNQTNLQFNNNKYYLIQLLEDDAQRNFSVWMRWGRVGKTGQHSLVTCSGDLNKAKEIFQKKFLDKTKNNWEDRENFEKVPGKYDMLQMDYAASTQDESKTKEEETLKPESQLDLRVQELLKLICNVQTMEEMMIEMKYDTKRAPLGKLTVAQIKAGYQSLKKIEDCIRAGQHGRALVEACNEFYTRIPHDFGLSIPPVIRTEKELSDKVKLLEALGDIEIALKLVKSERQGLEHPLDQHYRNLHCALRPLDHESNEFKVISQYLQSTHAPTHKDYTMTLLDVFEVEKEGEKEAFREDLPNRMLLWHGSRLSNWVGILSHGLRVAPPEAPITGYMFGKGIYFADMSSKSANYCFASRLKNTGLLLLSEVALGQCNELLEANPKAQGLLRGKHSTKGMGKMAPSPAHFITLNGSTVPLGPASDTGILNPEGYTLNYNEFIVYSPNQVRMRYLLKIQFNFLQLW
Excerpt: as §1, with “manner.” for “manner. Human PARP1 (Cat. No. 4668-100-01) and activated DNA (Cat. No. 4671-096-06) were purchased from Trevigen, Inc. PARP2 (Cat. No. ALX-201-064-C020) was purchased from Alexis Biochemical.”
The autoparsylation activity of the TNKS 1/2 or PARP1/2 enzymes was measured by the liquid chromatography-mass spectrometry (LC/MS) detection of nicotinamide as readout. Compound activity in inhibiting the TNKS and PARP autoparsylation was evaluated by IC50 measurements. […] For the background control wells, 10 μL of the 5× quenching solution per well was added prior to the addition of β-NAD^+. The % Inhibition was calculated as: (Control−Sample)/(Control−Background)*100.

| IC50 [2] | IC50 [3] | Molecule | HSV viral growth [1] | HSV viral protein expression [1] | AC50 (Axin2 protein) | IC50 (PARP2) |
| --- | --- | --- | --- | --- | --- | --- |
|  |  | Oc1nc(-c2ccc(C(F)(F)F)cc2)nc2c1CSCC2 [XAV939] | decreased viral growth | suppressed HSV viral protein expression |  |  |
| > 10 µM | 1020 ± 3 nM | O=C(CCc1cccc(O)c1)N(Cc1nc2c(c(=O)[nH]1)COCC2)Cc1cccs1 [Example 7, 3-(3-Hydroxy-phenyl)-N-(4-oxo-3,5,7,8-tetrahydro-4H-pyrano[4,3-d]pyrimidin-2-ylmethyl)-N-thiophen-2-ylmethyl-propionamide] |  |  | > 10 µM |  |
| > 10 µM | 299 ± 26 nM | O=C(CCc1ccc(F)cc1)N(Cc1nc2c(c(=O)[nH]1)COCC2)Cc1cccs1 [Example 2, 3-(4-Fluoro-phenyl)-N-(4-oxo-3,5,7,8-tetrahydro-4H-pyrano[4,3-d]pyrimidin-2-ylmethyl)-N-thiophen-2-ylmethyl-propionamide] |  |  | 8.2 ± 0.3 µM |  |
| 8.74 µM | 271 ± 45 nM | O=C(CCc1ccccc1F)N(Cc1nc2c(c(=O)[nH]1)COCC2)Cc1cccs1 [Example 4, 3-(2-Fluoro-phenyl)-N-(4-oxo-3,5,7,8-tetrahydro-4H-pyrano[4,3-d]pyrimidin-2-ylmethyl)-N-thiophen-2-ylmethyl-propionamide] |  |  | 4.1 ± 2.1 µM |  |
| > 10 µM | 1150 ± 20 nM | O=C(CCc1ccccc1)N(Cc1nc2c(c(=O)[nH]1)COCC2)Cc1cccs1 [Example 1] |  |  | > 10 µM |  |

| Molecule | IC50 [2] | IC50 [3] | HSV viral growth [1] | HSV viral protein expression [1] | AC50 (Axin2 protein) | IC50 (PARP2) |
| --- | --- | --- | --- | --- | --- | --- |
| N-((4-0xo-4,5,7,8-tetrahydro-3H-pyrano[4,3-d]pyrimidin-2-yl)methyl)-3-phenyl-N-(thiophen-3-ylmethyl)propanamide [Example 18] |  | 5170 ± 460 nM |  |  |  | 10.4 ± 0.8 µM |
